What was measured:
human podocytes [1] = test: Apoptosis analysis (Caspase-3 colorimetric assay) in podocytes exposed to patient sera; assay type: cell-based; conditions: DKD+ treated podocytes, 5 mM CD pretreatment 1 hour
Method: Human podocyte culture. Human podocytes were cultured and differentiated as previously described and serum starved in 0.2% FBS prior to experiments. When patient sera were utilized, starved cells were exposed to 4% patient sera for 24 hours. For insulin treatment experiments, 100 nmol insulin was added to the culture medium for 15 minutes after exposure to patient sera. […] Apoptosis analysis. Apoptosis was assessed using the Caspase-3/CPP32 Colorimetric Assay kit (Biovision) according to the manufacturer's description. Caspase 3 activity was normalized to cell number and expressed as fold change to controls.

human podocytes [2] = test: Determination of cholesterol content in podocytes exposed to patient sera; assay type: cell-based; conditions: DKD+ treated podocytes, 5 mM CD pretreatment 1 hour
Method: Human podocyte culture. Human podocytes were cultured and differentiated as previously described and serum starved in 0.2% FBS prior to experiments. When patient sera were utilized, starved cells were exposed to 4% patient sera for 24 hours. For insulin treatment experiments, 100 nmol insulin was added to the culture medium for 15 minutes after exposure to patient sera. […] Determination of cholesterol content. Esterified cholesterol was determined as difference between total and free cholesterol using an enzymatic assay and normalized to cell protein content. The cellular content of lipid droplets was determined using Oil red O (ORO). Cells were fixed and permeabilized as described above, washed in PBS and in 60% isopropanol, followed by incubation in ORO (0.5% ORO in isopropanol, 1:3 diluted) for 15 min at room temperature and counterstaining with hematoxylin for 1 min. The fraction of ORO positive cells over two hundred consecutive cells was calculated by bright field microscopy.

BTBR mice = test: Safety of chronic subcutaneous CD in BTBR mice (blood analysis at sacrifice); assay type: in vivo; conditions: at sacrifice, 4,000 mg/kg s.c. three times per week for 5 months
Method: (§1) BTBR ob/ob mice treatment and analysis. BTBR ob/ob mice were purchased from Jackson Laboratories. Mice were injected subcutaneously with 4,000 mg/kg CD or saline as reported previously, three times per week for 5 months. Urine was collected, and body weight and glycemia (OneTouch) were determined weekly. Six mice per group were analyzed. All animal procedures were approved by the Institutional Animal Care and Use Committee (IACUC). After isotonic saline perfusion, the right kidney was removed for cholesterol content determination and mRNA extraction. One left kidney pole was embedded in OCT, a second pole fixed in 4% PFA and paraffin-embedded for histological analysis. Blood samples were analyzed for CBC, lipid panel, AST, ALT, Alkaline Phosphatase, GGT, and BUN in the Comparative Laboratory Core Facility, University of Miami. Serum creatinine was determined by tandem mass spectrometry at the UAB-UCSD O'Brien Core Center, University of Alabama at Birmingham, using the methods previously described. The urine albumin content was measured by ELISA (Bethyl Laboratories). Urinary creatinine was assessed by an assay based on the Jaffe method (Stanbio). Values are expressed as μg albumin/mg creatinine. Fasting plasma insulin was determined by ELISA (Mercodia, SW). Intraperitoneal glucose tolerance tests (IPGTT) were performed 4 months after treatment; after 5-hr fasting, blood glucose was recorded at baseline and up to 180 minutes after a glucose bolus (1.5 g/kg). For insulin sensitivity, glycemia was monitored at baseline and up to 150 minutes after intraperitoneal injection of 4 mU/g of short acting insulin. Human islets from four different isolations were pretreated with 0.5 mM CD for one hour and perfused as described before to determine insulin release in response to glucose and KCl.
FIG. 3 is a table illustrating the safety of CD in 4-week old BTBR mice treated following subcutaneous administration of three weekly injections of hydroxypropyl-β-cyclodextrin (CD, 4,000 mg/kg body weight) for five months.

human podocytes [3] = test: Human podocytes exposed to DKD+ patient sera: immunofluorescence staining (filipin, phospho-caveolin, F-actin, cell blebbing); assay type: cell-based
Method: We used a previously established cell-based assay in which differentiated human podocytes are exposed to 4% patient sera for 24 hours to identify new pathways and targets in DKD. […] Excessive cholesterol deposition has indeed been described in glomeruli of rodent models of T1D and T2D and may contribute to DKD development and progression.
Human podocyte culture. Human podocytes were cultured and differentiated as previously described and serum starved in 0.2% FBS prior to experiments. When patient sera were utilized, starved cells were exposed to 4% patient sera for 24 hours. For insulin treatment experiments, 100 nmol insulin was added to the culture medium for 15 minutes after exposure to patient sera.
Immunofluorescence staining. […] Fluorescence detection was performed using Alexa Fluor secondary antibodies (Invitrogen). For cholesterol determination, filipin (Sigma) staining was performed as described. F-actin was visualized by Rhodamine Phalloidin (Invitrogen). Two hundred consecutive cells per condition were studied. Slides were prepared with DAPI enriched mounting media (Vectashield) and analyzed by confocal microscopy.

ABCA1 [4] = test: ABCA1 mRNA expression in kidney cortex of BTBR ob/ob mice; assay type: in vivo; conditions: BTBR ob/ob mice, 4,000 mg/kg s.c. three times per week, 5 months
Method: Quantitative Real Time PCR (QRT-PCR). Podocyte RNA was extracted using the RNAeasy Mini Kit (Qiagen). Reverse transcription was performed using the high-capacity cDNA reverse transcriptase kit (Applied Biosystems) according to the manufacturer's protocols. QRT-PCR was performed in the StepOnePlus real-time PCR system (Applied Biosystems) using the PerfeCTa® SYBR® Green FastMix (Quanta Biosciences). Relative gene expression was determined as 2^-ΔCt, with ΔCt being the difference between the cycle threshold (Ct) value of the target gene and Gapdh. For semi-quantitative expression analysis, PCR was performed and analyzed by gel electrophoresis. Amplification product intensities were determined using ImageJ software (NIH), values were normalized and expressed as fold changes in gene expression over GAPDH. The following primers were used: hABCA1-F, […]; hABCA1-R, […]; hLDL-R-F, […]; hLDL-R-R, […]; hHMG-CoA-R-F, […]; hHMG-CoA-R-R, […]; hGAPDH-F, […]; hGAPDH-R, Hs_ABCA1-SG QuantiTect-Primer-Assay (Qiagen); mAbca1-F, […]; mAbca1-R, […].
BTBR ob/ob mice treatment and analysis. […] Urine was collected, and body weight and glycemia (OneTouch) were determined weekly. Six mice per group were analyzed. […] Blood samples were analyzed for CBC, lipid panel, AST, ALT, Alkaline Phosphatase, GGT, and BUN in the Comparative Laboratory Core Facility, University of Miami. […]

[5] = intravenous infusions; cited from earlier work
BTBR ob/ob mice [6] = test: BTBR ob/ob mice treatment: body weight, glycemia, insulin, IPGTT, insulin sensitivity; assay type: in vivo
Method: as §1

human islets = test: Human islet perifusion: glucose stimulated insulin release; assay type: cell-based; conditions: human islets from four preparations, pretreated with 0.5 mM CD for one hour, vs untreated
Method: as §1, with “Intraperitoneal glucose tolerance tests (IPGTT) were performed 4 months after treatment; after 5-hr fasting, blood glucose was recorded at baseline and up to 180 minutes after a glucose bolus (1.5 g/kg). For insulin sensitivity, glycemia was monitored at baseline and up to 150 minutes after intraperitoneal injection of 4 mU/g of short acting insulin. Human islets from four different isolations were pretreated with 0.5 mM CD for one hour and perfused as described before to determine insulin release in response to glucose and KCl.” left out

ABCA1 [7] = test: ABCA1 immunofluorescence staining in pancreata of BTBR mice; assay type: in vivo
Source text: IPGTT performed one week prior to sacrifice were improved in CD treated homozygous mice when compared to homozygous controls. As improvement was observed despite a similar insulin sensitivity test, we analyzed the effect of low dose CD on the function of four different preparations of human islet cells. […] To determine whether the beneficial effect of CD on islet cell function was associated with the modulation of ABCA1 expression in pancreatic islets, we performed immunofluorescence staining using a rabbit polyclonal ABCA1 antibody (gift from Dr. A. Mendez) and determined ABCA1 expression as mean fluorescence intensity per pancreata analyzed. […] As hemolytic anemia and liver toxicity have been described while using other cyclodextrin derivatives in rodents and humans, and because we administered high dose CD for a period of 5 months, we studied hemoglobin, aspartate aminotransferase (AST), alanine transaminase (ALT) and gamma-glutamyltransferase (GGT) at sacrifice.

BTBR ob/ob mice [8] = test: BTBR ob/ob mice treatment: diabetic kidney disease readouts; assay type: in vivo
Method: as §1
Histology, assessment of mesangial expansion and glomerular surface area. Periodic acid-Shiff's (PAS) staining of 4 μm thick tissue sections was performed. Twenty glomeruli per section were analyzed for mesangial expansion by semiquantitative analysis (scale 0-4) performed by two blinded independent investigators. The glomerular surface was delineated in each encountered glomerulus and the mean surface area calculated as described.

human podocytes [9] = test: Western blotting and luminex (insulin stimulated AKT phosphorylation, MyD88) in podocytes exposed to patient sera; assay type: cell-based; conditions: DKD+ treated podocytes, 5 mM CD pretreatment 1 hour
Method: Human podocyte culture. Human podocytes were cultured and differentiated as previously described and serum starved in 0.2% FBS prior to experiments. When patient sera were utilized, starved cells were exposed to 4% patient sera for 24 hours. For insulin treatment experiments, 100 nmol insulin was added to the culture medium for 15 minutes after exposure to patient sera. […] Western blotting and luminex. Cell lysate collection and Western blotting was performed as previously described. The following primary antibodies were used: rabbit-polyclonal-anti-MyD88 (Cell Signaling), rabbit-polyclonal-anti-phosphorylated ([…]) or anti-total-AKT (Cell Signaling), mouse-monoclonal-anti-rhoA (Santa Cruz), or mouse-monoclonal-anti-Gapdh (6C5, Calbiochem) antibody. Secondary Anti-mouse-IgG-HRP or and Anti-rabbit-IgG-HRP Conjugate (Promega) were used. Image acquisition was performed using the chemiluminescent imager SRX-101A (Konica Minolta medical imaging, USA) and band densitometry was analyzed using ImageJ software (NIH). Alternatively, phosphorylated/total AKT was quantified using luminex technology as previously reported.

[10] = podocytes pretreated 1 hour with 5 mM CD, exposed to 4% DKD+ sera 24 hours
[11] = BTBR ob/ob mice, 4,000 mg/kg s.c. three times per week, after four months of treatment
[12] = sera collected at sacrifice, BTBR ob/ob mice, 4,000 mg/kg s.c. three times per week
[13] = serum at sacrifice, 4,000 mg/kg s.c. three times per week, 5 months

CC(O)COC[C@H]1O[C@@H]2O[C@H]3[C@H](O)[C@@H](O)[C@@H](O[C@H]4[C@H](O)[C@@H](O)[C@@H](O[C@H]5[C@H](O)[C@@H](O)[C@@H](O[C@H]6[C@H](O)[C@@H](O)[C@@H](O[C@H]7[C@H](O)[C@@H](O)[C@@H](O[C@H]8[C@H](O)[C@@H](O)[C@@H](O[C@H]1[C@H](O)[C@H]2O)O[C@@H]8COCC(C)O)O[C@@H]7COCC(C)O)O[C@@H]6COCC(C)O)O[C@@H]5COCC(C)O)O[C@@H]4COCC(C)O)O[C@@H]3COCC(C)O (stereo partly drawn) [CD, hydroxypropyl-β-cyclodextrin]
DKD+ induced apoptosis (cleaved Caspase 3) (human podocytes [1]): prevented DKD+ induced apoptosis | accumulation of esterified cholesterol (human podocytes [2]): prevented the accumulation of total and esterified cholesterol | accumulation of total cholesterol (human podocytes [2]): prevented the accumulation of total and esterified cholesterol | alanine transaminase (ALT) (BTBR mice): No abnormalities | aspartate aminotransferase (AST) (BTBR mice): No abnormalities | gamma-glutamyltransferase (GGT) (BTBR mice): No abnormalities | hemoglobin (BTBR mice): No abnormalities | cell blebbing (human podocytes [3]; human podocytes exposed to sera of patients with diabetic kidney disease, CD): prevents | localization of phosphorylated caveolin to focal adhesion sites (human podocytes [3]; [10]): preserved the localization of phosphorylated caveolin to focal adhesion sites | number of filipin-positive cells (human podocytes [3]; [10]): reduced the number of filipin-positive cells | podocyte injury observed in vitro after exposure to patient sera (human podocytes [3]; pretreated 1 hour with 5 mM CD or 1 μM simvastatin): prevented podocyte injury | ABCA1 mRNA expression in the kidney cortex (ABCA1 [4]): did not affect | crossing from the bloodstream into the brain [5]: does not cross from the bloodstream into the brain | body weight (BTBR ob/ob mice [6]; [11]): reduction of body weight | random glycemia (BTBR ob/ob mice [6]; [11]): improvement of random glycemia | sensitivity to a single dose of short acting insulin (BTBR ob/ob mice [6]; BTBR ob/ob mice, insulin 4 mU/g intraperitoneal): did not affect the sensitivity | IPGTT (glucose tolerance) (BTBR ob/ob mice [6]; CD treated homozygous mice vs homozygous controls, one week prior to sacrifice, glucose bolus 1.5 g/kg): improved | fasting plasma glucose (BTBR ob/ob mice [6]; [12]): significant improvement | fasting plasma insulin (BTBR ob/ob mice [6]; [12]): significant improvement | glucose stimulated insulin release (human islets): significant improvement in glucose stimulated insulin release | ABCA1 expression in pancreata (mean fluorescence intensity) (ABCA1 [7]; heterozygous BTBR ob/+ mice, p<0.01): significantly increased ABCA1 expression | ABCA1 expression in pancreata (mean fluorescence intensity) (ABCA1 [7]; homozygous BTBR ob/ob mice, p<0.001): significantly increased ABCA1 expression | total cholesterol in the kidney cortex (BTBR ob/ob mice [8]; BTBR ob/ob mice, 4,000 mg/kg s.c. three times per week, 5 months): significant reduction of total cholesterol | albumin/creatinine ratios in morning spot urine (BTBR ob/ob mice [8]; BTBR ob/ob mice, 4,000 mg/kg s.c. three times per week, at 3 months, vs untreated, p<0.001): significant down-regulation | kidney weight (BTBR ob/ob mice [8]; BTBR ob/ob mice, 4,000 mg/kg s.c. three times per week, at sacrifice (5 months)): reduction of kidney weight | albumin/creatinine ratios in morning spot urine (BTBR ob/ob mice [8]; BTBR ob/ob mice, 4,000 mg/kg s.c. three times per week, until sacrifice (5 months)): decrease persisted until sacrifice | glomerular surface area (BTBR ob/ob mice [8]; PAS stained kidney sections, five months of treatment): without affecting the glomerular surface area | mesangial expansion (BTBR ob/ob mice [8]; PAS stained kidney sections, semiquantitative scale 0-4, five months of treatment): reduction of mesangial expansion | albumin excretion rates (BTBR ob/ob mice [8]; homozygous BTBR ob/ob mice, 4,000 mg/kg s.c. three times per week, up to 2 months after treatment initiation): no changes | Blood urea nitrogen (BUN) (BTBR ob/ob mice [8]; [13]): not significantly affected | serum creatinine (BTBR ob/ob mice [8]; [13]): not significantly affected | DKD+ induced MyD88 expression (human podocytes [9]): prevented | DKD+ induced insulin resistance (insulin stimulated AKT phosphorylation) (human podocytes [9]; 100 nmol insulin 15 minutes): prevented

Reference: US10980828B2, “Method of using cyclodextrin” (L&F Research LLC, priority 2012, dated 2021)
